According to patent US20140243374A1, “Novel Sulfonamides” (The Brigham and Women's Hospital, Inc., priority 2011, published 2014):
pIC50: −log10 of the molar value. Where “and” joins values, the source holds several entries; their conditions need not be identical. Identical values can stand only once.

Legend:
[1] = target: T1, γ-secretase (cleavage of APP, Aβ42) (Homo sapiens, UniProt P49768); test: Aβ (1-42) cellular assay (Aβ ELISA, HEK AP-GL-T1 6 cells); format: cell-based; conditions: for pIC50: cellular Aβ42 ELISA, 24 h compound treatment; for inhibition at 1 µM: at 1 μM (concentration in brackets)
T1 construct: endogenous in cells; host or cells: HEK AP-GL-T16 luciferase reporter cells (tetracycline-induced APP substrate)
Description: Aβ (1-42) Cellular Assay.
The following assay was used to determine the extent to which the compounds of interest inhibit the cleavage of APP in vivo. AβELISA is a commercial fluorometric kit from Biosource (Invitrogen 89344). Luciferase reporter HEK AP-GL-T1 6 cells were plated at 50,000 cells/well in 96 well plates in DMEM media containing 10% tetracyclin free […], 250 μg/mL zeocin, 200 μg/mL hygromycin, and 5 μg/mL blasticidin. Compounds were added 24 h after plating and APP processing is induced simultaneously by addition of tetracycline. Following a 24 h compound treatment, […] of conditioned cell media is collected, mixed with ELISA diluent buffer containing 2 mM AEBSF and 12 mM o-phenanthroline, and immediately frozen at −80° C. For the ELISA, the samples were brought to room temperature and spun at 5000 rpm for 5 min. Samples ([…]) are incubated in the ELISA plate with […] detection antibody on a shaker at room temperature for 3 h. Wells were then washed 4 times with wash buffer and 100 mL of secondary antibody are added and incubated at room temperature for 30 min. Wells were again washed 4 times with wash buffer and 100 mL of fluorescent substrate solution are added. After 30 minutes of incubation, fluorescent signals are determine on a Gemini reader at ex 460 nm and em 560 nm. The amount of Aβ levels in each sample was determined from a standard curve generated by known concentrations of Aβ peptide run simultaneously with the samples.

[2] = target: T2, γ-secretase (cleavage of Notch) (Homo sapiens, UniProt P49768); test: Notch cellular assay (luciferase reporter U2OS cells); format: cell-based; conditions: for pIC50: U2OS luciferase reporter cells; for Notch Luc/Aβ42: ratio Notch luciferase IC50 to Aβ42 IC50
T2 construct: endogenous in cells; host or cells: U2OS luciferase reporter cells with Tet-on Notch
Description: This assay was used to determine if the compounds of interest inhibit the cleavage of Notch by γ-secretase in cells. A U2OS cell line in which the luciferase expression is adjusted by active Notch was used in this assay Notch expression is adjusted using Tet-on promoter. Luciferase reporter U2OS cells are plated at 1000 cells/well in 96 well plates in DMEM containing 100 μg/mL hygromycin, 15 μg/mL blasticidin and 1 μg/mL Tetracycline. Compounds were added 24 h after plating and the cells are lysed 6 days after adding compounds. Luciferase expression was performed using Steady-Glo Luciferase Assay System (Promega).

[3] = target: T3, γ-secretase (Notch cleavage activity) (Homo sapiens, UniProt P49768); test: Cleaved Notch1 Sandwich ELISA (SUP-T1 cell line); format: cell-based; conditions: for pIC50: SUP-T1 cells, 16 h; for Notch Elisa/Aβ42: ratio Notch Elisa IC50 to Aβ42 IC50
T3 construct: endogenous in cells; host or cells: SUP-T1 cells
Description: Cleaved Notch1 Sandwich ELISA.
This assay was used to determine if the compounds of interest inhibit the Notch cleavage activity of γ-secretase in SUP-T1 cell line, which endogenously expresses a truncated Notch receptor fragment that is a viable gamma-secretase substrate. The base medium for this cell line is ATCC-formulated RPMI-1640 Medium with fetal bovine serum to a final concentration of 10%. Prepare dilution of SUP-T1 cells in complete growth medium to 1.0×10^6 cells/mL, seed 1.5 mL per well of each cell dilution into a 6-well plate. Collect cells treated with serial diluted compounds in DMSO after 16 h, then using equal amount of protein isolated from samples to measure Notch intracellular cleavage by PathScan® Sandwich ELISA Kit (Cell Signaling Tech 7194S).

Row | pIC50 [1] | melting point | inhibition at 1 µM ([1]; read-out: Aβ42 % Inh) | Compound | other results
1 | 6.70 | 150 to 152 °C | – | COC(=O)c1ccc(CN([C@H]2CCCC[C@@H]2O)S(=O)(=O)c2ccc(Cl)cc2)cc1 [Example 31, Methyl 4-((4-chloro-N-((1S,2S)-2-hydroxycyclohexyl)phenylsulfonamido)methyl)benzoate] | –
2 | – | 188 to 190 °C | 13% | O=C(O)c1ccc(CN(CC2CCOCC2)S(=O)(=O)c2ccc(Cl)cc2)cc1 [Example 19, 4-((4-Chloro-N-((tetrahydro-2H-pyran-4-yl)methyl)phenylsulfonamido)methyl)-benzoic acid] | –
3 | – | 158 to 160 °C | – | O=C(O)c1ccc(CN(C2CCCCC2Cl)S(=O)(=O)c2ccc(Cl)cc2)cc1 (centres unmarked) [Example 81, 4-((4-Chloro-N-(2-chlorocyclohexyl)phenylsulfonamido)methyl)benzoic acid] | inhibition at 30 µM ([1]; at 30 μM (concentration in brackets), read-out: Aβ42 % Inh): 0%
4 | – | 124 to 127 °C | 0% | CSc1ccc(CN(C2CCOCC2)S(=O)(=O)c2ccc(Cl)cc2)cc1 [Example 10, 4-Chloro-N-(4-(methylthio)benzyl)-N-(tetrahydro-2H-pyran-4-yl)benzene-sulfonamide] | –
5 | – | 178 to 179 °C | 0% | Cc1ccc(S(=O)(=O)N(Cc2ccc(C#N)cc2F)C2CCCC2)cc1 [Example 29, N-(4-Cyano-2-fluorobenzyl)-N-cyclopentyl-4-methylbenzenesulfonamide] | –
6 | – | 81 to 83 °C | 0% | CC[C@H](C1CCCC1)N(Cc1ccc(C(=O)OC)cc1)S(=O)(=O)c1ccc(Cl)cc1 [Example 22, (R)-Methyl 4-((4-chloro-N-(1-cyclopentylpropyl)phenylsulfonamido)methyl)benzoate] | –
7 | – | 131 to 132 °C | 56% | CC1CCCCC1N(Cc1ccc(C(=O)NC(C)(C)C(=O)O)cc1)S(=O)(=O)c1ccc(C(F)(F)F)nc1 (centres unmarked) [Example 33, 2-Methyl-2-(4-((N-(2-methylcyclohexyl)-6-(trifluoromethyl)pyridine-3-sulfonamido)methyl)benzamido)propanoicacid] | –
8 | – | 158 to 160 °C | 0% | CS(=O)(=O)c1ccc(CN(C2CCOCC2)S(=O)(=O)c2ccc(Cl)cc2)cc1 [Example 11, 4-Chloro-N-(4-(methylsulfonyl)benzyl)-N-(tetrahydro-2H-pyran-4-yl)benzene-sulfonamide] | –
9 | – | 218 to 219 °C | 51% | O=C(O)c1ccc(CN(C2CCCCC2O)S(=O)(=O)c2ccc(Cl)cc2)cc1 (centres unmarked) [Example 24, 4-((4-Chloro-N-(2-hydroxycyclohexyl)phenylsulfonamido)methyl)benzoic acid] | –
10 | – | 146 to 147 °C | 37% | Cc1ccc(S(=O)(=O)N(Cc2ccc(C#N)cc2F)C2CCC2)cc1 [Example 27, N-(4-Cyano-2-fluorobenzyl)-N-cyclobutyl-4-methylbenzenesulfonamide] | –
11 | 9.15 | – | – | CC(=O)CNC(=O)c1ccc(CN(C2CCCCC2C)S(=O)(=O)c2ccc(Cl)cc2)cc1 (centres unmarked) [Example 48, 4-((4-Chloro-N-(2-methylcyclohexyl)phenylsulfonamido)methyl)-N-(2-oxopropyl)benzamide] | pIC50 [2]: 6.74; Notch Luc/Aβ42 [2]: 260; pIC50 [3]: 6.66; Notch Elisa/Aβ42 [3]: 314
12 | – | 123 to 125 °C | 0% | O=S(=O)(c1ccc(Cl)cc1)N(Cc1ccc(OC2CCOCC2)nc1)C1CCOCC1 [Example 13, 4-Chloro-N-(tetrahydro-2H-pyran-4-yl)-N-((6-(tetrahydro-2H-pyran-4-yloxy)-pyridin-3-yl)methyl)benzenesulfonamide] | –
13 | – | 218 to 220 °C | 0% | O=C(O)c1ccc(CN(C2CCCCC2)S(=O)(=O)c2ccc(F)cc2)cc1 [Example 9, 4-((N-cyclohexyl-4-fluorophenylsulfonamido)methyl)benzoic acid] | –
14 | 6.52 | 176 to 177 °C | – | N#Cc1ccc(CN(C2CCCC2)S(=O)(=O)c2ccc(Cl)cc2)c(F)c1 [Example 28, 4-Chloro-N-(4-cyano-2-fluorobenzyl)-N-cyclopentylbenzenesulfonamide] | –
15 | 7.30 and 7.10 and 7.01 | – | – | O=C(O)c1ccc(CN(C2CCCCC2F)S(=O)(=O)c2ccc(Cl)cc2)cc1 (centres unmarked) [Example 57, 4-((4-Chloro-N-(2-fluorocyclohexyl)phenylsulfonamido)methyl)benzoic acid] | pIC50 [2]: 4.54; Notch Luc/Aβ42 ([2]; listed as 57/1231): 376; pIC50 [3]: 5.97; Notch Elisa/Aβ42 ([3]; listed as 57/1231): 14
16 | 6.47 and 6.16 and 6.68 | – | – | O=C(O)c1ccc(CN(C2CCCCC2F)S(=O)(=O)c2ccc(Cl)cc2)cc1 (single isomer, unassigned) [Example 58, 4-((4-Chloro-N-(2-fluorocyclohexyl)phenylsulfonamido)methyl)benzoic acid] | pIC50 [2]: 3.59; Notch Luc/Aβ42 ([2]; listed as 58/1231A): 630; pIC50 [3]: 5.00; Notch Elisa/Aβ42 ([3]; listed as 58/1231A): 25
17 | – | 118 to 119 °C | 0% | COC(=O)c1cc(CN(CC2CCOCC2)S(=O)(=O)c2ccc(Cl)cc2)ccc1OC [Example 16, Methyl 5-((4-chloro-N-((tetrahydro-2H-pyran-4-yl)methyl)phenylsulfonamido)-methyl)-2-methoxybenzoate] | –
18 | – | 134 to 136 °C | 11% | O=C(O)c1ccc(CN(C2CCCCC2O)S(=O)(=O)c2ccc(Cl)cc2)c(F)c1F (centres unmarked) [Example 67, 4-((4-Chloro-N-(2-hydroxycyclohexyl)phenylsulfonamido)methyl)-2,3-difluorobenzoic acid] | –
19 | – | 67 to 69 °C | 0% | CC[C@H](C1CCCC1)N(Cc1ccc(C(=O)O)cc1)S(=O)(=O)c1ccc(Cl)cc1 [Example 23, (R)-4-((4-Chloro-N-(1-cyclopentylpropyl)phenylsulfonamido)methyl)benzoic acid] | –
20 | – | 125 to 127 °C | 54% | N#Cc1ccc(CN(C2CCC2)S(=O)(=O)c2ccc(Cl)cc2)c(F)c1 [Example 26, 4-Chloro-N-(4-cyano-2-fluorobenzyl)-N-cyclobutylbenzenesulfonamide] | –
21 | – | 218 to 219 °C | 6% | O=C(O)c1ccc(CN(C2CCOCC2)S(=O)(=O)c2ccc(Cl)cc2)cc1 [Example 1, 4-((4-Chloro-N-(tetrahydro-2H-pyran-4-yl)phenylsulfonamido)methyl)benzoic acid] | –
22 | 7.75 | 162 to 164 °C | – | COC(=O)c1ccc(CN(C2CCCCC2O)S(=O)(=O)c2ccc(Cl)cc2)cc1 (centres unmarked) [Example 25, Methyl 4-((4-chloro-N-(2-hydroxycyclohexyl)phenylsulfonamido)methyl)benzoate] | –
23 | 9.16 | – | – | COC[C@@H](C)NC(=O)c1ccc(CN(C2CCCCC2C)S(=O)(=O)c2ccc(Cl)cc2)cc1 (stereo partly drawn) [Example 46, 4-((4-Chloro-N-(2-methylcyclohexyl)phenylsulfonamido)methyl)-N-((R)-1-methoxypropan-2-yl)benzamide] | pIC50 [2]: 6.52; Notch Luc/Aβ42 ([2]; listed as 46/1221): 432; pIC50 [3]: 6.15
24 | 9.06 | – | – | CC1CCCCC1N(Cc1ccc(C(=O)NC[C@H](C)O)cc1)S(=O)(=O)c1ccc(Cl)cc1 (stereo partly drawn) [Example 47, 4-((4-Chloro-N-(2-methylcyclohexyl)phenylsulfonamido)methyl)-N—((S)-2-hydroxypropyl)benzamide] | pIC50 [2]: 6.16; Notch Luc/Aβ42 [2]: 791; pIC50 [3]: 6.46; Notch Elisa/Aβ42 [3]: 401
